Results on four compounds are retold here after article PMC3276683 (Bioorganic & medicinal chemistry, 2012).

pIC50: −log10 of the molar value. Like-named read-outs stand apart in the source and are kept apart here.

The subject of assay [1] is Plasmodium falciparum (strain K1, IEF stage). Type of assay: cell-based. The following applies: L6 IC50 versus P. falciparum IC50.
Assay [2] relates to American Trypanosoma cruzi blood trypomastigotes. Particulars: in words; cited from earlier work.
For assay [3], the system named is Leishmania donovani. The following applies: cited from earlier work.
Assay [4] relates to Trypanosoma brucei rhodesiense (strain STIB 900, trypomastigote stage). The assay is described as follows: Growth inhibition of T. b. rhodesiense STIB900 trypomastigote forms. Type of assay: cell-based.

On to `COC1=CC(=O)O[C@]2(/C=C/c3ccc(C(C)(C)C)cc3)[C@H]1[C@H](c1ccc(C(C)(C)C)cc1)[C@H]2c1cc(OC)cc(=O)o1` (racemic) [compound 33, 12,12′-Di-tert-butyl-aniba-dimer-A], for which the “SI Pf. (selectivity index for Plasmodium falciparum against L6)” value in assay [1] is on record as roughly 80.

Regarding `COc1cc(/C=C/c2ccc(OC)c(OC)c2)oc(=O)c1` [compound 3, 6-[2-(3,4-Dimethoxyphenyl)ethenyl]-4-methoxy-2H-pyran-2-one], the “activity against T. cruzi blood trypomastigotes” value in assay [2] is reported as “weak activity”. In the case of `CCCCCCc1c(OC)cc(CCCCC)oc1=O` [compound 10], the 50% inhibitory concentration (IC50) (as a rule, the midpoint of a concentration-inhibition curve) in assay [3] is “similarly active”. In assay [4] (RHODESIENSE|STIB900), `Nc1nc(N)nc(Nc2ccc([As]3SCC(CO)S3)cc2)n1` (centres unmarked) [melarsoprol] returned a half-maximal inhibitory concentration (IC50) of 4 ng/mL. Moreover, the pIC50 (as a rule, the negative decadic logarithm of the IC50, by convention in mol/L) in assay [4] (RHODESIENSE|STIB900, read-out: T.b.rhod. IC50) was 8.00.
